Measured values: patent publication US20260001853A1, “ASCORBIC ACID DERIVATIVE OR SALT THEREOF, AND COSMETIC THEREOF” (SEIWA KASEI COMPANY, LIMITED, priority 2022, published 2026)

What was measured:
[1] = test system: Normal human dermal fibroblasts (NHDF); experiment: Hyaluronic acid production promoting effect (ELISA of supernatant); assay type: cell-based; conditions: amount of hyaluronic acid produced, % with control group taken as 100%; sample at 10 mmol/L or less, 48 hours, N=3
Experimental: Normal human dermal fibroblasts (NHDF) were prepared in D-MEM containing 5% (v/v) fetal bovine serum to a cell density of 2.5× 10^4 cells/well, and then pre-incubated on a 96-well plate for 24 hours. After removing the medium, samples prepared in serum-free D-MEM were added to each well and cultured for 48 hours. After the culture was completed, the amount of hyaluronic acid in the supernatant was quantified by ELISA method. The measurement was performed with N=3.
(§1) The amount of hyaluronic acid produced when the samples were measured at a concentration of 10 mmol/L or less was compared with that of the control group, and the results (% values when the control group is taken as 100%) are shown in Tables 18 to 20 based on the following criteria. • <100%: ± • 100-120%: + • 120-150%: ++ • 150%: +++

B16 melanoma 4A5 cells = experiment: Melanin production inhibitory effect (theophylline-induced melanin production); assay type: cell-based, mouse; conditions: melanin production inhibition rate, sample at a concentration of 10 mM or less, 3 days culture, theophylline 1 mmol/L, N=4
Experimental: As a test of the whitening effect, the effect on theophylline-induced melanin production in B16 melanoma 4A5 cells was evaluated for the ascorbic acid derivatives of the present invention according to the following procedure. A similar evaluation was also performed for a known ascorbic acid derivative for comparison. The results are shown in Tables 9 to 11. • (1) B16 mouse melanoma 4A5 cells were seeded in a 48-well plate at a cell density of 8.0×10^3 cells/well. • (2) After culturing for 24 hours in Dulbecco's modified Eagle's medium (manufactured by SIGMA, hereinafter abbreviated as “D-MEM”) containing 10% fetal bovine serum, the medium was replaced with D-MEM containing 10% fetal bovine serum containing theophylline (final concentration 1 mmol/L) and a specified concentration of a sample. • (3) After culturing for 3 days in the presence of the sample, the medium was removed using an aspirator, distilled water was added, and the cells were disrupted by ultrasonication. • (4) The amount of protein was then quantified using a BCA protein assay kit (manufactured by PIERCE), and the amount of melanin produced was measured by an alkali solubilization method. Sodium hydroxide was added to the cell lysate to a final concentration of 1 mol/L, and the solution was dissolved by heating (60° C., 30 minutes), thereafter the absorbance at 405 nm was measured using a microplate reader. The amount of melanin was calculated from a calibration curve prepared using synthetic melanin (SIGMA) as a standard. The amount of melanin per unit protein was calculated by dividing the amount of melanin by the amount of protein. • (5) The melanin production inhibition rate was calculated using the following formula.
[In the formula, A represents the amount of melanin per unit protein (g/g) when the sample was added, B represents the amount of melanin per unit protein (g/g) in the normal group, and C represents the amount of melanin per unit protein (g/g) in the control group.]
The melanin production inhibition rate when the sample was measured at a concentration of 10 mM or less is expressed as follows. The measurement was performed with N=4. • <20%: ± • 20-40%: + • 40-60%: ++ • 60-100%: +++

[2] = test system: Normal human dermal fibroblasts; experiment: Collagen production promoting effect (ELISA of supernatant); assay type: cell-based; conditions: amount of collagen produced, % with control group taken as 100%; sample at 10 mmol/L or less, 48 hours, N=3
Experimental: Normal human dermal fibroblasts were prepared in D-MEM containing 5% (v/v) fetal bovine serum to a cell density of […] cells/well, and pre incubated on a 96-well plate for 24 hours. After removing the medium, samples prepared to a predetermined concentration in D-MEM containing 5% (v/v) fetal bovine serum were added to each well and cultured for 48 hours. After completion of the culture, the amount of free collagen in the supernatant was quantified by ELISA method. The measurement was performed with N=3.
as §1, with “of collagen” for “of hyaluronic acid”, “Tables 15” for “Tables 18”, “to 17” for “to 20”, “• 120%:” for “• 120-150%:”, “++” for “++ • 150%: +++”

[3] = Stability test (residual rate by HPLC, odor, coloring); assay type: physicochemical; conditions: 1% aqueous solution; for Coloring / Odor: total score of 10 panelists
Experimental: With a dilute potassium hydroxide aqueous solution, 1% aqueous solution of each test sample was adjusted to pH 6, placed in a 50 mL screw tube, sealed, […], and then subjected to HPLC measurement (using a liquid chromatograph manufactured by Shimadzu Corporation) to determine the residual rate from the peak area. The residual rate, odor, and coloring degree were evaluated according to the following methods and criteria.
Residual rate: • ⊚: 90% or more • ◯: 80% or more, less than 90% • Δ: 60% or more, less than 80% • x: 20% or more, less than 60% • xx: Less than 20%
Evaluation was made by 10 panelists according to the following criteria. • 3: Almost odorless • 2: There is a slight strange odor. • 1: A strong odor is detected.
Based on the evaluation results, the following classification was made: • ⊚: Total score of 10 panelists is 25 or more • ◯: Total score of 10 panelists is 20-24 • Δ: Total score of 10 panelists is 16-19 • x: The total score of 10 panelists is 15 or less
Evaluation was made by 10 panelists according to the following criteria. • 3: Almost no change compared to immediately after preparation. • 2: Color changes compared to immediately after preparation. • 1: Strongly colored compared to immediately after preparation.
Based on the evaluation results, the following classification was made: • ◯: Total score of 10 panelists is 25 or more • Δ: Total score of 10 panelists is 16-24 • x: The total score of 10 panelists is 15 or less

[4] = pH 6, stored at 50° C., four weeks later
[5] = pH 6, stored at 50° C., two weeks later

Residual rate ([3]; pH 6, 50° C., initial)	Residual rate [3, 4]	Residual rate [3, 5]	SMILES	Hyaluronic acid production promoting effect [1]	Melanin production inhibition effect (B16 melanoma 4A5 cells)	Collagen production promoting effect [2]	Coloring ([3]; pH 6, 50° C., initial)	Odor ([3]; pH 6, 50° C., initial)	Coloring [3, 4]	Odor [3, 4]	Coloring [3, 5]	Odor [3, 5]
⊚ (⊚: 90% or more)	⊚ (⊚: 90% or more)	⊚ (⊚: 90% or more)	CC(C)(O)COC1=C(OCC(O)c2ccccc2)C(=O)OC1C(O)CO (stereo not drawn) [Synthesis Example 43, 3-O-(2-hydroxyisobutyl)-2-O-(2-hydroxyethylbenzene) ascorbic acid]	++ (120-150%: ++)	++ (40-60%: ++)	++ (120%: ++)	◯ (◯: Total score of 10 panelists is 25 or more)	◯ (◯: Total score of 10 panelists is 20-24)	◯ (◯: Total score of 10 panelists is 25 or more)	◯ (◯: Total score of 10 panelists is 20-24)	◯ (◯: Total score of 10 panelists is 25 or more)	◯ (◯: Total score of 10 panelists is 20-24)
⊚ (⊚: 90% or more)	⊚ (⊚: 90% or more)	⊚ (⊚: 90% or more)	CCCCOCC(O)COC1=C(OCC(C)(C)O)C(=O)OC1C(O)CO (stereo not drawn) [Synthesis Example 14, 2-O-(2-hydroxyisobutyl)-3-O-(2-hydroxy-3-O-butyl) ascorbic acid]	++ (120-150%: ++)	++ (40-60%: ++)	++ (120%: ++)	◯ (◯: Total score of 10 panelists is 25 or more)	⊚ (⊚: Total score of 10 panelists is 25 or more)	◯ (◯: Total score of 10 panelists is 25 or more)	◯ (◯: Total score of 10 panelists is 20-24)	◯ (◯: Total score of 10 panelists is 25 or more)	⊚ (⊚: Total score of 10 panelists is 25 or more)
⊚ (⊚: 90% or more)	⊚ (⊚: 90% or more)	⊚ (⊚: 90% or more)	CC(O)COC1=C(OCC(C)(C)O)[C@@H]([C@@H](O)CO)OC1=O (stereo partly drawn) [Synthesis Example 39, 3-O-(2-hydroxyisobutyl)-2-O-(2-hydroxypropyl) ascorbic acid]	+++ (150%: +++)	+++ (60-100%: +++)	+ (100-120%: +)	⊚	⊚ (⊚: Total score of 10 panelists is 25 or more)	◯ (◯: Total score of 10 panelists is 25 or more)	◯ (◯: Total score of 10 panelists is 20-24)	◯ (◯: Total score of 10 panelists is 25 or more)	◯ (◯: Total score of 10 panelists is 20-24)
⊚ (⊚: 90% or more)	⊚ (⊚: 90% or more)	⊚ (⊚: 90% or more)	CC(C)(O)COC1=C(OCC(C)(C)O)[C@@H]([C@@H](O)CO)OC1=O [Synthesis Example 17, 2,3-di-O-(2-hydroxyisobutyl) ascorbic acid]	++ (120-150%: ++)	+ (20-40%: +)	++ (120%: ++)	◯ (◯: Total score of 10 panelists is 25 or more)	◯ (◯: Total score of 10 panelists is 20-24)	◯ (◯: Total score of 10 panelists is 25 or more)	◯ (◯: Total score of 10 panelists is 20-24)	◯ (◯: Total score of 10 panelists is 25 or more)	◯ (◯: Total score of 10 panelists is 20-24)

The next lines start with the molecule.

SMILES	Residual rate ([3]; pH 6, 50° C., initial)	Residual rate [3, 4]	Residual rate [3, 5]	Hyaluronic acid production promoting effect [1]	Melanin production inhibition effect (B16 melanoma 4A5 cells)	Collagen production promoting effect [2]	Coloring ([3]; pH 6, 50° C., initial)	Odor ([3]; pH 6, 50° C., initial)	Coloring [3, 4]	Odor [3, 4]	Coloring [3, 5]	Odor [3, 5]
CCCCCCCCCCCCCCC(O)COC1=C(OCC(C)(C)O)[C@@H]([C@@H](O)CO)OC1=O (stereo partly drawn) [Synthesis Example 42, 3-O-(2-hydroxyisobutyl)-2-O-(2-hydroxyhexadecyl) ascorbic acid]	⊚ (⊚: 90% or more)	⊚ (⊚: 90% or more)	⊚ (⊚: 90% or more)	+++ (150%: +++)	++ (40-60%: ++)	+ (100-120%: +)	◯ (◯: Total score of 10 panelists is 25 or more)	◯ (◯: Total score of 10 panelists is 20-24)	◯ (◯: Total score of 10 panelists is 25 or more)	◯ (◯: Total score of 10 panelists is 20-24)	◯ (◯: Total score of 10 panelists is 25 or more)	◯ (◯: Total score of 10 panelists is 20-24)
CCCCCCCCC(O)COC1=C(OCC(C)(C)O)[C@@H]([C@@H](O)CO)OC1=O (stereo partly drawn) [Synthesis Example 41, 3-O-(2-hydroxyisobutyl)-2-O-(2-hydroxydecyl) ascorbic acid]	⊚ (⊚: 90% or more)	⊚ (⊚: 90% or more)	⊚ (⊚: 90% or more)	++ (120-150%: ++)	++ (40-60%: ++)	+ (100-120%: +)	◯ (◯: Total score of 10 panelists is 25 or more)	◯ (◯: Total score of 10 panelists is 20-24)	◯ (◯: Total score of 10 panelists is 25 or more)	◯ (◯: Total score of 10 panelists is 20-24)	◯ (◯: Total score of 10 panelists is 25 or more)	◯ (◯: Total score of 10 panelists is 20-24)
CCCCCCCCCCCCCCC(O)COC1=C(OCC(C)(C)O)C(=O)O[C@@H]1[C@@H](O)CO (stereo partly drawn) [Synthesis Example 37, 2-O-(2-hydroxyisobutyl)-3-O-(2-hydroxyhexadecyl) ascorbic acid]	⊚ (⊚: 90% or more)	⊚ (⊚: 90% or more)	⊚ (⊚: 90% or more)	++ (120-150%: ++)	+ (20-40%: +)	+ (100-120%: +)	◯ (◯: Total score of 10 panelists is 25 or more)	⊚ (⊚: Total score of 10 panelists is 25 or more)	◯ (◯: Total score of 10 panelists is 25 or more)	◯ (◯: Total score of 10 panelists is 20-24)	◯ (◯: Total score of 10 panelists is 25 or more)	◯ (◯: Total score of 10 panelists is 20-24)
